Assay results from EP0573218B1, “4-Carboxyimidazoles as angiotensin II antagonists and their thrapeutic use” (SANKYO COMPANY LIMITED, priority 1992, dated 1993).

tested on: All receptor; test: Inhibition of pressor response to intravenous angiotensin II in anaesthetised rats (AII receptor blocking activity); format: in vivo; settings: i.v.; dose inhibiting by fifty percent the pressor response to 50 ng/kg i.v. angiotensin II; angiotensin II injected two minutes after test compound; male Wister-Imamichi rats
Description: Evaluation of All receptor blocking activity by Inhibition of pressor response to angiotensin II
The biological activity of each compound was assessed by determining the dose required to inhibit the pressor response to intravenous angiotensin II by fifty percent (ID50) in rats. Male Wister-Imamichi rats, each weighing 300 to 400 g, were anaesthesized by intraperitoneal injection of 100 mg/Kg of sodium thiobutabarbital [Inactin (trade name)] and two cannulae were inserted: one into the femoral artery for measuring blood pressure and the other into the femoral vein for injecting drugs. Fifty ng/kg of angiotension II were intravenously administered at intervals of about 10 minutes, and the elevation of blood pressure (normally about 50 mmHg) was observed. After constant pressor responses to angiotensin II were obtained, a test compound was intravenously administered. Two minutes later, angiotension II was again injected, and the inhibitory effect of the test compound was estimated. The percent inhibitions of the pressor response to angiotensin II by progressive increase of the test compound was used to calculate the value of ID50. Angiotensin II was used in this test dissolved in 0.5 % bovine serum albumin (BSA) and the test compounds were dissolved in 100% dimethyl sulphoxide (DMSO).

**Q.** `CCOCc1nc(C(C)(C)O)c(C(=O)O)n1Cc1ccc(-c2ccccc2-c2nnn[nH]2)cc1` [Example 6, 2-Ethoxymethyl-4-(1-hydroxy-1-methylethyl)-1-{4-[2-(tetrazol-5-yl)phenyl]phenyl}methylimidazole-5-carboxylic acid] was tested. Which ID50 did it give?
**A.** 0.0059 mg/kg

**Q.** Which ID50 does the source give for `CCCOCc1nc(C(C)(C)O)c(C(=O)O)n1Cc1ccc(-c2ccccc2-c2nnn[nH]2)cc1` [Example 10, 4-(1-Hydroxy-1-methylethyl)-2-propoxymethyl-1-{4-[2-(tetrazol-5-yl)phenyl]phenyl}methylimidazole-5-carboxylic acid] here?
**A.** 0.016 mg/kg

**Q.** For `COC(C)c1nc(C(C)(C)O)c(C(=O)O)n1Cc1ccc(-c2ccccc2-c2nnn[nH]2)cc1` (stereo not shown) [Example 14, 4-(1-Hydroxy-1-methylethyl)-2-(1-methoxyethyl)-1-{4-[2-(tetrazol-5-yl)phenyl]phenyl}methyl-imidazole-5-carboxylic acid], which ID50 is on record?
**A.** 0.074 mg/kg

**Q.** Which ID50 does the source give for `COCc1nc(C(C)(C)O)c(C(=O)O)n1Cc1ccc(-c2ccccc2-c2nnn[nH]2)cc1` [Example 2, 4-(1-Hydroxy-1-methylethyl)-2-methoxymethyl-1-{4-[2-(tetrazol-5-yl)phenyl]phenyl}methylimidazole-5-carboxylic acid] here?
**A.** 0.0066 mg/kg

**Q.** `CCSc1nc(C(C)(C)O)c(C(=O)O)n1Cc1ccc(-c2ccccc2-c2nnn[nH]2)cc1` [Example 27, 2-Ethylthio-4-(1-hydroxy-1-methylethyl)-1-{4-[2-(tetrazol-5-yl)phenyl]phenyl}methyl-imidazole-5-carboxylic acid] was tested. Which ID50 did it give?
**A.** 0.019 mg/kg

**Q.** With `CSCc1nc(C(C)(C)O)c(C(=O)O)n1Cc1ccc(-c2ccccc2-c2nnn[nH]2)cc1` [Example 22, 4-(1-Hydroxy-1-methylethyl)-2-methylthiomethyl-1-{4-[2-(tetrazol-5-yl)phenyl]phenyl}methyl-imidazole-5-carboxylic acid] as the compound, how does the ID50 read?
**A.** 0.025 mg/kg

**Q.** How did the ID50 turn out when `CSc1nc(C(C)(C)O)c(C(=O)O)n1Cc1ccc(-c2ccccc2-c2nnn[nH]2)cc1` [Example 25, 4-(1-Hydroxy-1-methylethyl)-2-methylthio-1-{4-[2-(tetrazol-5-yl)phenyl]phenyl}methyl-imidazole-5-carboxylic acid] was run?
**A.** 0.026 mg/kg
